Source: patent US20070275382A1, “Biomarkers for the Efficacy of Somatostatin Analogue Treatment” (priority 2003, published 2007)
*1 amine or outer side, *2 acyl side, *3 side chain or, on linkers, in order; H or OH if unused. Where a SMILES comes first, the peptide text is derived from it. Side-chain parts run from the residue outwards. [ ]: non-standard residue; d: D form. The star is where a group is joined. Ethylenediamine = C(CN[*:2])N[*:1]; Hyp = O=C(O)[CH]1C[CH](O)CN1; Phg = N[CH](C(=O)O)c1ccccc1; CO = O=C([*:1])[*:2]; Bn = c1ccc(C*)cc1

Test system: Liver left lateral lobe
Assay: Microarray gene expression profiling (HG-U95A), liver
Format: in vivo, cynomolgus monkeys
Procedure: Origin of tissue and processing. Male and female cynomolgus monkeys received subcutaneously pasireotide (100 μg/animal/day) or the vehicle for 14 days. On day 15, all animals were sacrificed and tissues for RNA extraction were immediately snap-frozen and kept at −80° C. until processing.
RNA expression profiling was conducted by means of the HG-U95A gene expression probe array (Affymetrix; Santa Clara, Calif. USA), containing more than 12,600 probe sets interrogating primarily full-length human genes and also some control probe sets. The experiment was conducted according to the recommendations of the manufacturer. Briefly, total RNA was obtained by acid guanidinium thiocyanate-phenol-chloroform extraction (Trizol®, Invitrogen Life Technologies, San Diego, Calif. USA) from each frozen tissue section. The total RNA was then purified on an affinity resin (Rneasy®, Qiagen) and quantified. Double stranded cDNA was synthesized with a starting amount of approximately 5 μg full-length total RNA using the Superscript® Choice System (Invitrogen Life Technologies, Carlsbad, Calif. USA) in the presence of a T7-(dT)24 DNA oligonucleotide primer. Following synthesis, the cDNA was purified by phenol/chloroform/isoamyl alcohol extraction and ethanol precipitation. The purified cDNA was then transcribed in vitro using the BioArray® High Yield RNA Transcript Labeling Kit (ENZO, Farmingdale, N.Y. USA) in the presence of biotinylated ribonucleotides form biotin labelled cRNA. The labelled cRNA was then purified on an affinity resin (Rneasy®, Qiagen), quantified and fragmented. An amount of approximately 10 μg labelled cRNA was hybridized for 16 hours at 45° C. to an expression probe array. The array was then washed and stained twice with streptavidin-phycoerythrin (Molecular Probes,) using the GeneChip® Fluidics Workstation 400 (Affymetrix, Santa Clara, Calif. USA). The array was then scanned twice using a confocal laser scanner (GeneArray® Scanner, Agilent, Palo Alto, Calif. USA) resulting in one scanned image. This resulting “.dat-file” was processed using the MAS4 program (Affymetrix) into a “.cel-file”. The “.cel file” was captured and loaded into the Affymetrix GeneChip® Laboratory Information Management System (LIMS). The LIMS database is connected to a UNIX Sun Solaris server through a network filing system that allows for the average intensities for all probes cells (CEL file) to be downloaded into an Oracle database (NPGN). Raw data was converted to expression levels using a “target intensity” of 150. The data were evaluated for quality control and loaded in the GeneSpring® software 4.2.4 (Silicon Genetics, Calif. USA) for analysis.
On the human Affymetrix HGU95Av2 chip, probe sets for individual genes contain 20 oligonucleotide pairs, each composed of a “perfect match” 25-mer and a “mismatch” 25-mer differing from the “perfect” match oligonucleotide at a single base. After probe labelling, hybridization, and laser scanning, the expression level was estimated by averaging the differences in signal intensity measured by oligonucleotide pairs of a given probe (AvgDiff value). The fold changes and directions were calculated for selected genes, from the differences of the AvgDiff values between controls and treated.
To identify genes that were impacted by pasireotide, the dataset was initially filtered to exclude in a first wave of analysis, genes whose values were systematically in the lower expression ranges where the experimental noise is high (at least 80 in a number of experiments corresponding to the smallest number of replicas of any experimental point). In a second round of selection a threshold p-value of 0.05 (based on a t-test) identified differences between treated and control based on a two component error model (Global Error Model) and, whenever possible, with a stepdown correction for multi-hypothesis testing (Benjamini and Hochberg false discovery rate). […]

[1] = ↑ increase, treated vs controls
[2] = ↓ decrease, treated vs controls

With `NCCCCC1NC(=O)C(Cc2c[nH]c3ccccc23)NC(=O)C(c2ccccc2)NC(=O)C2CC(OC(=O)NCCN)CN2C(=O)C(Cc2ccccc2)NC(=O)C(Cc2ccc(OCc3ccccc3)cc2)NC1=O` (stereo not drawn) [Pasireotide, cyclo[4-(NH2—C2H4—NH—CO—O)Pro-Phg-DTrp-Lys-Tyr(4-Bzl)-Phe]] (cyclo(F[Hyp]([CO-Ethylenediamine])[Phg]WKY(Bn)); configuration not given here) the “GR expression level, AvgDiff (range)” value (0.1 mg/animal/14day) was 80 (70 to 360), the “IGF-2 expression level, AvgDiff (range)” value (0.1 mg/animal/14day) was 269 (224 to 291) and the “IGFBP2 expression level, AvgDiff (range)” value (0.1 mg/animal/14day) was 4,476 (3,191 to 5,422). For the same compound, the “Insulin promoter factor 1, homeodomain transcription factor expression level, AvgDiff (range)” value (0.1 mg/animal/14day) was 42 (23 to 52), the “5-hydroxytryptamine (serotonin) receptor 6 RNA expression fold change” value [1] was “receptor 6 ↑ x2.5” and the “Adenylyl cyclase-associated protein RNA expression fold change” value [1] was “↑ x1.5”. The “Arginine vasopressin receptor 2 RNA expression fold change” value [1] was “receptor 2 ↑ x2.5”, the “B lymphoid tyrosine kinase RNA expression fold change” value [1] was “↑ x3.5” and the “Bone-derived GF RNA expression fold change” value [1] was “↑ x3”. For the same compound, the “Bruton agamma globulinaemia tyrosine kinase RNA expression fold change” value [1] was “↑ x1.5”, the “Butyrate response factor 2 (EGF-response factor 2) RNA expression fold change” value [1] was “factor 2) ↑ x2” and the “Calcium/calmodulin-dependent protein kinase kinase 2, β RNA expression fold change” value [1] was “↑ x3”. The “Calmodulin 2 (phosphorylase kinase, δ) RNA expression fold change” value [1] was “kinase, δ) ↑ x2”, the “Cdk 5, regulatory subunit 1 RNA expression fold change” value [1] was “subunit 1 ↑ x2.5” and the “Cdki1A (p21/Cip1) RNA expression fold change” value [1] was “(p21/Cip1) ↑ x6”. For the same compound, the “Corticosteroid binding globulin precursor RNA expression fold change” value [1] was “precursor ↑ x2”, the “DAG kinase, α (80 kD) RNA expression fold change” value [1] was “(80 kD) ↑ x3” and the “DAG kinase, δ (130 kD) RNA expression fold change” value [1] was “↑ x1.5”. For the same compound, the “Dopamine receptor D2 RNA expression fold change” value [1] was “receptor D2 ↑ x3.5”, the “Dopamine receptor D3 RNA expression fold change” value [1] was “receptor D3 ↑ x2” and the “EGFR (avian erythroblastic leukaemia viral (v-erb-b) oncogene homolog) RNA expression fold change” value [1] was “homolog) ↑ x2”. The “FGFR2 (bacteria-expressed kinase, keratinocyte growth factor receptor, craniofacial dysplasia) RNA expression fold change” value [1] was “dysplasia) ↑ x2”, the “Fas-activated serine/threonine kinase RNA expression fold change” value [1] was “kinase ↑ x1.5” and the “GABA (A) receptor, γ2 precursor RNA expression fold change” value [1] was “precursor ↑ x4”. The “GABA(A) receptor-associated protein RNA expression fold change” value [1] was “↑ x1.5”, the “GCSF RNA expression fold change” value [1] was “GCSF ↑ x3.5” and the “Glucacon receptor RNA expression fold change” value [1] was “receptor ↑ x5”. For the same compound, the “Glutamate receptor, metabotropic 4 RNA expression fold change” value [1] was “↑ x1.5”, the “Growth differentiation factor 1 RNA expression fold change” value [1] was “factor 1 ↑ x3” and the “IFN regulatory factor 5 RNA expression fold change” value [1] was “factor 5 ↑ x2.5”. For the same compound, the “IFN-induced leucine zipper protein RNA expression fold change” value [1] was “↑ x1.5”, the “IFN-inducible RNA-dependent protein kinase RNA expression fold change” value [1] was “kinase ↑ x4” and the “IFNγ responsive transcript RNA expression fold change” value [1] was “transcript ↑ x1.5”. For the same compound, the “IGFBP2 RNA expression fold change” value [1] was “IGFBP2 ↑ x2”, the “IL2 R, γ chain, precursor RNA expression fold change” value [1] was “precursor ↑ x2.5” and the “IP 5-phosphatase RNA expression fold change” value [1] was “phosphatase ↑ x2”. For the same compound, the “Natriuretic peptide receptor A/guanylate cyclase A (atrionatriuretic peptide receptor A) RNA expression fold change” value [1] was “A) ↑ x6”, the “Nck, Ash and PLC γ binding protein NAP4 RNA expression fold change” value [1] was “↑ x3.5” and the “PDGF, α polypeptide RNA expression fold change” value [1] was “polypeptide ↑ x1.5”. For the same compound, the “PDGFR, α polypeptide RNA expression fold change” value [1] was “polypeptide ↑ x2”, the “PI transfer protein RNA expression fold change” value [1] was “protein ↑ x3.5” and the “PKC substrate 80K-H RNA expression fold change” value [1] was 80K-H ↑ x1.5. The “PLA2, group IIA (platelets, synovial fluid) RNA expression fold change” value [1] was “fluid) ↑ x5.5”, the “PLC, γ 1 (formerly subtype 148) RNA expression fold change” value [1] was 148) ↑ x2 and the “Rb binding protein RNA expression fold change” value [1] was “protein ↑ x2.5”. For the same compound, the “Rb-like 2 (p130) RNA expression fold change” value [1] was “(p130)↑ x3”, the “Receptor (calcitonin) activity modifying protein 1 precursor RNA expression fold change” value [1] was 1 precursor ↑ x1.5 and the “Solute carrier family 9 (sodium/hydrogen exchanger), isoform 3 regulatory factor 1 RNA expression fold change” value [1] was “↑ x11.5”. For the same compound, the “Solute carrier family 11 (Na+/phosphate symporters), member 1 RNA expression fold change” value [1] was “member 1 ↑ x2.5”, the “TGFβ activated kinase-binding protein 1 RNA expression fold change” value [1] was “protein 1 ↑ x2.5” and the “THR interacting protein 15 RNA expression fold change” value [1] was “protein 15 ↑ x1.5”. The “THR sulfo transferase RNA expression fold change” value [1] was “transferase ↑ x2.5”, the “TNF (ligand) superfamily, member 10 RNA expression fold change” value [1] was 10 ↑ x1.5 and the “δ sleep inducing peptide, immunoreactor RNA expression fold change” value [1] was “↑ x2.5”. The “1-PI-4-phosphate 5-kinase isoform C RNA expression fold change” value [2] was “↓ x2”, the “ATPase, H+/K+ exchanging, beta polypeptide RNA expression fold change” value [2] was “polypeptide ↓ x2” and the “BCL2-like 1 RNA expression fold change” value [2] was “↓ x3.5”. For the same compound, the “Ca++ channel, voltage-dependent, P/Q type, alpha 1A subunit RNA expression fold change” value [2] was “subunit ↓ x2.5”, the “Cdk like-2 RNA expression fold change” value [2] was “Cdk like-2 ↓ x2” and the “Cdki 2D (p19, inhibits CDK4) RNA expression fold change” value [2] was “↓ x2.5”. For the same compound, the “Death-associated protein 6 RNA expression fold change” value [2] was “↓ x2.5”, the “EGF (β-urogastrone) RNA expression fold change” value [2] was “↓ x2.5” and the “EGF-like repeats and discoidin I-like domains 3 RNA expression fold change” value [2] was “domains 3 ↓ x1.5”. For the same compound, the “Fms-related tyrosine kinase 1(VEGF/vascular permeability factor receptor) RNA expression fold change” value [2] was “receptor) ↓ x1.5”, the “GFR-bound protein 2 RNA expression fold change” value [2] was “protein 2 ↓ x2.5” and the “Glycosylphosphatidylinositol specific phospholipase D1 RNA expression fold change” value [2] was “↓ x1.5”. For the same compound, the “IFN-related developmental regulator 2 RNA expression fold change” value [2] was “regulator 2 ↓ x1.5”, the “IFN-stimulated protein, 15 kDa RNA expression fold change” value [2] was “protein, 15 kDa ↓ x2” and the “IGF-2 RNA expression fold change” value [2] was “IGF-2 ↓ x2.5”. For the same compound, the “Insulin promoter factor 1, homeodomain transcription factor RNA expression fold change” value [2] was “↓ x1.5”, the “PI transfer protein, β RNA expression fold change” value [2] was “protein, β ↓ x1.5” and the “PKC, ι RNA expression fold change” value [2] was “PKC, ι ↓ x1.5”. The “Rb 1 (including osteosarcoma) RNA expression fold change” value [2] was “↓ x2”, the “TGF, β1 RNA expression fold change” value [2] was “TGF, β1 ↓ x1.5” and the “TGFβR III (betaglycan, 300 kδ) RNA expression fold change” value [2] was 300 kδ) ↓ x2. For the same compound, the “TNF-α converting enzyme RNA expression fold change” value [2] was “enzyme ↓ x2”.
